# According to patent publication US7910612B2, “4-oxy-N-[1,3,4]-thiadiazol-2-yl-benzene sulfonamides, pharmaceutical compositions and methods for their therapeutic use” (Sanofi-Aventis, priority 2005, dated 2011):
# Target: T1, human PPARgamma (Homo sapiens, UniProt P37231)
# T1 construct: amino acids 1152-Y475; expressed in transfected cells; host or cells: HEK (human embryonic kidney) cells, transiently transfected with pcDNA3-GAL4-humanPPARgammaLBD
# T1 sequence (P37231 182-477 isoform P37231-2 limits assumed): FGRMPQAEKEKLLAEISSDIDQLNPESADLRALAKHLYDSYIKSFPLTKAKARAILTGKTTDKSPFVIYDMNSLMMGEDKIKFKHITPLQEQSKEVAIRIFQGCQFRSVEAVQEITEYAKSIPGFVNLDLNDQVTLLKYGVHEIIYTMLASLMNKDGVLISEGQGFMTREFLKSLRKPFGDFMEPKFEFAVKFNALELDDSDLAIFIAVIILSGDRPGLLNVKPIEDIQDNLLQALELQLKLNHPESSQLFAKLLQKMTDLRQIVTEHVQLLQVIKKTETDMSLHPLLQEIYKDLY
# Experiment: cellular PPARgamma assay (transiently transfected HEK cells, luciferase reporter)
# Type: cell-based
# Excerpt: A transient transfection system is employed to determine the cellular PPARgamma activity of PPAR agonists. It is based on the use of a luciferase reporter plasmid (pGL3basic-5xGAL4-TK) and of a PPARgamma expression plasmid (pcDNA3-GAL4-humanPPARgammaLBD). Both plasmids are transiently transfected into human embryonic kidney cells (HEK cells). There is then expression in these cells of the fusion protein GAL4-humanPPARgammaLBD which binds to the GAL4 binding sites of the reporter plasmid. In the presence of a PPARgamma-active ligand, the activated fusion protein GAL4-humanPPARgammaLBD induces expression of the luciferase reporter gene, which can be detected in the form of a chemiluminescence signal after addition of a luciferase substrate. As a difference from the stably transfected PPARalpha reporter cell line, in the cellular PPARgamma assay the two components (luciferase reporter plasmid and PPARgamma expression plasmid) are transiently transfected into HEK cells because stable and permanent expression of the PPARgamma fusion protein is cytotoxic.
# The luciferase reporter plasmid pGL3basic-5xGAL4-TK is based on the vector pGL3basic from Promega. The reporter plasmid is prepared by cloning five binding sites of the yeast transcription factor GAL4 (each binding site with the sequence 5′-CTCGGAGGACAGTACTCCG-3′), together with a 160 bp-long thymidine kinase promoter section (Genbank Accession #AF027128) 5′-upstream into pGL3basic. 3′-downstream of the thymidine kinase promoter is the complete luciferase gene from Photinus pyralis (Genbank Accession #M15077) which is already a constituent of the plasmid pGL3basic used. The cloning and sequencing of the reporter plasmid pGL3basic-5xGAL4-TK took place in analogy to the description in Sambrook J. et. al. (Molecular cloning, Cold Spring Harbor Laboratory Press, 1989).
# The PPARgamma expression plasmid pcDNA3-GAL4-humanPPARgammaLBD was prepared by first cloning the cDNA coding for amino acids 1-147 of the yeast transcription factor GAL4 (Genbank Accession #P04386) into the plasmid pcDNA3 (from Invitrogen) 3′-downstream of the cytomegalovirus promoter. Subsequently, the cDNA of the ligand-binding domain (LBD) of the human PPARgamma receptor (amino acids […]; Accession #g1480099) 3′-downstream of the GAL4 DNA binding domain. Cloning and sequencing of the PPARgamma expression plasmid pcDNA3-GAL4-humanPPARgammaLBD again took place in analogy to the description in Sambrook J. et. al. (Molecular cloning, Cold Spring Harbor Laboratory Press, 1989). Besides the luciferase reporter plasmid pGL3basic-5xGAL4-TK and the PPARgamma expression plasmid pcDNA3-GAL4-humanPPARgammaLBD, also used for the cellular PPARgamma assay are the reference plasmid pRL-CMV (from Promega) and the plasmid pBluescript SK(+) from Stratagene. All four plasmids were prepared using a plasmid preparation kit from Qiagen, which ensured a plasmid quality with a minimal endotoxin content, before transfection into HEK cells.
# The activity of PPARgamma agonists was then determined in a 4-day assay which is described below. Before the transfection, HEK cells are cultivated in DMEM (#41965-039, Invitrogen) which is mixed with the following additions: 10% FCS (#16000-044, Invitrogen), 1% penicillin-streptomycin solution (#15140-122, Invitrogen) and 2 mM L-glutamine (#25030-024, Invitrogen).
# Firstly, solution A, a transfection mixture which contains all four plasmids previously described in addition to DMEM, is prepared. The following amounts are used to make up 3 ml of solution A for each 96 well microtiter plate for an assay: 2622 μl of antibiotic- and serum-free DMEM (#41965-039, Invitrogen), 100 μl of reference plasmid pRL-CMV (1 ng/μl), 100 μl of luciferase reporter plasmid pGL3basic-5xGAL4-TK (10 ng/μl), 100 μl of PPARgamma expression plasmid pcDNA3-GAL4-humanPPARgammaLBD (100 ng/μl) and 78 μl of plasmid pBluescript SK(+) (500 ng/μl). […]
row,SMILES,EC50
1,"Cc1nc(-c2ccc(C(F)(F)F)cc2)sc1COc1ccc(S(=O)(=O)Nc2nnc(C(C)C)s2)cc1 [Example 1, N-(5-Isopropyl-[1,3,4]thiadiazol-2-yl)-4-[4-methyl-2-(4-trifluoromethyl-phenyl)-thiazol-5-ylmethoxy]-benzenesulfonamide]",50 nM
2,"COc1ccc2c(COc3ccc(S(=O)(=O)Nc4nnc(C(C)C)s4)cc3)coc2c1 [Example 3, N-(5-Isopropyl-[1,3,4]thiadiazol-2-yl)-4-(6-methoxy-benzofuran-3-ylmethoxy)-benzenesulfonamide]",460 nM
3,"CC(C)c1nnc(NS(=O)(=O)c2ccc(OCc3ccc(Oc4ccc(C(F)(F)F)cc4)cc3)cc2)s1 [Example 4, N-(5-Isopropyl-[1,3,4]thiadiazol-2-yl)-4-[4-(4-trifluoromethyl-phenoxy)-benzyloxy]-benzenesulfonamide]",460 nM
4,"COc1ccc(-c2nc(COc3ccc(S(=O)(=O)Nc4nnc(C(C)C)s4)cc3)no2)cc1 [Example 9, N-(5-Isopropyl-[1,3,4]thiadiazol-2-yl)-4-[5-(4-methoxy-phenyl)-[1,2,4]oxadiazol-3-ylmethoxy]-benzenesulfonamide]",50 nM
5,"COc1ccc(-c2nc(COc3ccc(S(=O)(=O)Nc4nnc(C(C)C)s4)cc3)co2)cc1 [Example 13, N-(5-Isopropyl-[1,3,4]thiadiazol-2-yl)-4-[2-(4-methoxy-phenyl)-oxazol-4-ylmethoxy]-benzenesulfonamide]",1970 nM
6,"CCc1oc(-c2cccc(C(F)(F)F)c2)nc1COc1ccc(S(=O)(=O)Nc2nnc(C(C)C)s2)cc1 [Example 14, 4-[5-Ethyl-2-(3-trifluoromethyl-phenyl)-oxazol-4-ylmethoxy]-N-(5-isopropyl-[1,3,4]thiadiazol-2-yl)-benzenesulfonamide]",1 nM
